Experimental data published in PubChem BioAssay AID1918931 (Molecular Pharmacology Branch, DTP, NCI, 2023).

System: 138582-337-R-J1-PDC complex spheroid viability
Assay: Anticancer human tumor 138582-337-R-J1-PDC patient-derived Merkel cell tumor cell line growth inhibition
Settings: for IC50: curve of first compound; for viability, T/C: stronger effect = lower value
Summary of the method: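 Complex spheroids of tumor cells with HUVEC and human MSCs, exposed to iadademstat combined with other agents. Each agent tested in half-log steps from near clinical Cmax (else 10 microM top), DMSO ≤0.25%.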

[1] = second compound 0.1 µM, first compound 0.0316 µM
[2] = second compound 0.1 µM, first compound 0.1 µM
[3] = second compound 0.1 µM, first compound 0.316 µM
[4] = second compound 0.1 µM, first compound 1 µM
[5] = second compound 0.316 µM, first compound 0.0316 µM
[6] = second compound 0.316 µM, first compound 0.1 µM
[7] = second compound 0.316 µM, first compound 0.316 µM
[8] = second compound 0.316 µM, first compound 1 µM
[9] = second compound 1 µM, first compound 0.0316 µM
[10] = second compound 1 µM, first compound 0.1 µM
[11] = second compound 1 µM, first compound 0.316 µM
[12] = second compound 1 µM, first compound 1 µM
[13] = second compound 3.16 µM, first compound 0.0316 µM
[14] = second compound 3.16 µM, first compound 0.1 µM
[15] = second compound 3.16 µM, first compound 0.316 µM
[16] = second compound 3.16 µM, first compound 1 µM
[17] = second compound 10 µM, first compound 0.0316 µM
[18] = second compound 10 µM, first compound 0.1 µM
[19] = second compound 10 µM, first compound 0.316 µM
[20] = second compound 10 µM, first compound 1 µM
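For viability, T/C in this document: 100% = DMSO vehicle control viability.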

`COc1ccc([C@@H](O)c2cc(-c3ncnc4cc(N5CCOCC5)ccc34)c(F)cc2Cl)nn1` + NC1CC1c1ccc(-c2cccc(O)c2)cc1 showed an IC50 (second compound 0.1 µM) of 620 nM, an IC50 (second compound 0.316 µM) of 2690 nM and an IC50 (second compound 1 µM) of 1980 nM. The IC50 (second compound 3.16 µM) was 2200 nM, the IC50 (second compound 10 µM) was 2490 nM and the viability, T/C [1] was 73.2%. The viability, T/C [2] was 60.4%, the viability, T/C [3] was 57% and the viability, T/C [4] was 45.5%. It also gave a viability, T/C (second compound 0.1 µM, first compound 3.16 µM) of 38.2%, a viability, T/C (second compound 0.1 µM, first compound 10 µM) of 24.6% and a viability, T/C [5] of 67%. It also gave a viability, T/C [6] of 72.2%, a viability, T/C [7] of 66.1% and a viability, T/C [8] of 58.3%. The viability, T/C (second compound 0.316 µM, first compound 3.16 µM) was 49.2%, the viability, T/C (second compound 0.316 µM, first compound 10 µM) was 28.5% and the viability, T/C [9] was 77.2%. It also gave a viability, T/C [10] of 73.5%, a viability, T/C [11] of 61% and a viability, T/C [12] of 61.6%. It also gave a viability, T/C (second compound 1 µM, first compound 3.16 µM) of 44.7%, a viability, T/C (second compound 1 µM, first compound 10 µM) of 25.1% and a viability, T/C [13] of 68.3%. The viability, T/C [14] was 79.5%, the viability, T/C [15] was 65.4% and the viability, T/C [16] was 58.8%. For the same compound, the viability, T/C (second compound 3.16 µM, first compound 3.16 µM) was 46.4%, the viability, T/C (second compound 3.16 µM, first compound 10 µM) was 26% and the viability, T/C [17] was 99.8%. For the same compound, the viability, T/C [18] was 90.6%, the viability, T/C [19] was 77% and the viability, T/C [20] was 63.9%. For the same compound, the viability, T/C (second compound 10 µM, first compound 3.16 µM) was 48.1% and the viability, T/C (second compound 10 µM, first compound 10 µM) was 25.3%.
`Nc1ncn(C2CC(O)C(CO)S2)c(=O)n1` (stereo not given) + NC1CC1c1ccc(-c2cccc(O)c2)cc1 was tested, and the IC50 (second compound 0.1 µM) was greater than 300 nM, the IC50 (second compound 0.316 µM) was greater than 300 nM and the IC50 (second compound 1 µM) was greater than 300 nM. The IC50 (second compound 3.16 µM) was greater than 300 nM, the IC50 (second compound 10 µM) was greater than 300 nM and the viability, T/C (second compound 0.1 µM, first compound 0.000949 µM) was 79.6%. For the same compound, the viability, T/C (second compound 0.1 µM, first compound 0.003 µM) was 83.8%, the viability, T/C (second compound 0.1 µM, first compound 0.00949 µM) was 69.2% and the viability, T/C (second compound 0.1 µM, first compound 0.03 µM) was 73%. The viability, T/C (second compound 0.1 µM, first compound 0.0949 µM) was 77.1%, the viability, T/C (second compound 0.1 µM, first compound 0.3 µM) was 69.3% and the viability, T/C (second compound 0.316 µM, first compound 0.000949 µM) was 68.5%. The viability, T/C (second compound 0.316 µM, first compound 0.003 µM) was 80.1%, the viability, T/C (second compound 0.316 µM, first compound 0.00949 µM) was 77.9% and the viability, T/C (second compound 0.316 µM, first compound 0.03 µM) was 76.6%. For the same compound, the viability, T/C (second compound 0.316 µM, first compound 0.0949 µM) was 79.1%, the viability, T/C (second compound 0.316 µM, first compound 0.3 µM) was 78.3% and the viability, T/C (second compound 1 µM, first compound 0.000949 µM) was 71.8%. The viability, T/C (second compound 1 µM, first compound 0.003 µM) was 70.8%, the viability, T/C (second compound 1 µM, first compound 0.00949 µM) was 70.8% and the viability, T/C (second compound 1 µM, first compound 0.03 µM) was 68%. The viability, T/C (second compound 1 µM, first compound 0.0949 µM) was 76.6%, the viability, T/C (second compound 1 µM, first compound 0.3 µM) was 87.5% and the viability, T/C (second compound 3.16 µM, first compound 0.000949 µM) was 84.5%. It also gave a viability, T/C (second compound 3.16 µM, first compound 0.003 µM) of 78.9%, a viability, T/C (second compound 3.16 µM, first compound 0.00949 µM) of 84.9% and a viability, T/C (second compound 3.16 µM, first compound 0.03 µM) of 71.8%. It also gave a viability, T/C (second compound 3.16 µM, first compound 0.0949 µM) of 77.8%, a viability, T/C (second compound 3.16 µM, first compound 0.3 µM) of 68.9% and a viability, T/C (second compound 10 µM, first compound 0.000949 µM) of 74.3%. The viability, T/C (second compound 10 µM, first compound 0.003 µM) was 82%, the viability, T/C (second compound 10 µM, first compound 0.00949 µM) was 88.5% and the viability, T/C (second compound 10 µM, first compound 0.03 µM) was 89.7%. The viability, T/C (second compound 10 µM, first compound 0.0949 µM) was 93.4% and the viability, T/C (second compound 10 µM, first compound 0.3 µM) was 89.9%.
`O=C(C=Cn1cnc(-c2cc(C(F)(F)F)cc(C(F)(F)F)c2)n1)NNc1cnccn1` + NC1CC1c1ccc(-c2cccc(O)c2)cc1 gave an IC50 (second compound 0.1 µM) of 11.5 nM, an IC50 (second compound 0.316 µM) of 10.4 nM and an IC50 (second compound 1 µM) of 5.94 nM. It also gave an IC50 (second compound 3.16 µM) of 5.94 nM, an IC50 (second compound 10 µM) of 15.8 nM and a viability, T/C (second compound 0.1 µM, first compound 0.00316 µM) of 60.7%. The viability, T/C (second compound 0.1 µM, first compound 0.01 µM) was 53%, the viability, T/C [1] was 27.8% and the viability, T/C [2] was 17.4%. It also gave a viability, T/C [3] of 16.3%, a viability, T/C [4] of 15.7% and a viability, T/C (second compound 0.316 µM, first compound 0.00316 µM) of 56.7%. The viability, T/C (second compound 0.316 µM, first compound 0.01 µM) was 50.4%, the viability, T/C [5] was 28.1% and the viability, T/C [6] was 16.2%. It also gave a viability, T/C [7] of 17.3%, a viability, T/C [8] of 21% and a viability, T/C (second compound 1 µM, first compound 0.00316 µM) of 55.2%. The viability, T/C (second compound 1 µM, first compound 0.01 µM) was 44.8%, the viability, T/C [9] was 33.8% and the viability, T/C [10] was 21.1%. The viability, T/C [11] was 18.6%, the viability, T/C [12] was 23.8% and the viability, T/C (second compound 3.16 µM, first compound 0.00316 µM) was 55.2%. For the same compound, the viability, T/C (second compound 3.16 µM, first compound 0.01 µM) was 46%, the viability, T/C [13] was 29.3% and the viability, T/C [14] was 22.1%. It also gave a viability, T/C [15] of 22.6%, a viability, T/C [16] of 17.3% and a viability, T/C (second compound 10 µM, first compound 0.00316 µM) of 55.4%. It also gave a viability, T/C (second compound 10 µM, first compound 0.01 µM) of 53.1%, a viability, T/C [17] of 44.6% and a viability, T/C [18] of 35.1%. The viability, T/C [19] was 24.9% and the viability, T/C [20] was 32.2%.
